System: 485368-065-R3-J5-PDC spheroids with HUVEC/MSC, viability
Assay: Anticancer human tumor 485368-065-R3-J5-PDC patient-derived pancreatic carcinoma cell line growth inhibition [RAS]
Conditions: for IC50: curve of first compound; for viability, T/C: stronger effect = lower value; active means viability on the fitted dose curve at most 10% of control; inactive means the rest
Outline: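 Agents were tested in combination matrices in half-log decrements from a top concentration at or near clinical Cmax (10 microM if undetermined). Targets were multi-cell spheroids of tumour lines plus HUVEC and MSC stromal cells.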

[1] = second compound 0.000949 µM, first compound 0.00316 µM
[2] = second compound 0.000949 µM, first compound 0.01 µM
[3] = second compound 0.000949 µM, first compound 0.0316 µM
[4] = second compound 0.000949 µM, first compound 0.1 µM
[5] = second compound 0.003 µM, first compound 0.00316 µM
[6] = second compound 0.003 µM, first compound 0.01 µM
[7] = second compound 0.003 µM, first compound 0.0316 µM
[8] = second compound 0.003 µM, first compound 0.1 µM
[9] = second compound 0.00949 µM, first compound 0.00316 µM
[10] = second compound 0.00949 µM, first compound 0.01 µM
[11] = second compound 0.00949 µM, first compound 0.0316 µM
[12] = second compound 0.00949 µM, first compound 0.1 µM
[13] = second compound 0.03 µM, first compound 0.00316 µM
[14] = second compound 0.03 µM, first compound 0.01 µM
[15] = second compound 0.03 µM, first compound 0.0316 µM
[16] = second compound 0.03 µM, first compound 0.1 µM
[17] = second compound 0.0949 µM, first compound 0.00316 µM
[18] = second compound 0.0949 µM, first compound 0.01 µM
[19] = second compound 0.0949 µM, first compound 0.0316 µM
[20] = second compound 0.0949 µM, first compound 0.1 µM
[21] = second compound 0.3 µM, first compound 0.00316 µM
[22] = second compound 0.3 µM, first compound 0.01 µM
[23] = second compound 0.3 µM, first compound 0.0316 µM
[24] = second compound 0.3 µM, first compound 0.1 µM
[25] = second compound 0.000949 µM, first compound 0.316 µM
[26] = second compound 0.000949 µM, first compound 1 µM
[27] = second compound 0.000949 µM, first compound 3.16 µM
[28] = second compound 0.000949 µM, first compound 10 µM
[29] = second compound 0.003 µM, first compound 0.316 µM
[30] = second compound 0.003 µM, first compound 1 µM
[31] = second compound 0.003 µM, first compound 3.16 µM
[32] = second compound 0.003 µM, first compound 10 µM
[33] = second compound 0.00949 µM, first compound 0.316 µM
[34] = second compound 0.00949 µM, first compound 1 µM
[35] = second compound 0.00949 µM, first compound 3.16 µM
[36] = second compound 0.00949 µM, first compound 10 µM
[37] = second compound 0.03 µM, first compound 0.316 µM
[38] = second compound 0.03 µM, first compound 1 µM
[39] = second compound 0.03 µM, first compound 3.16 µM
[40] = second compound 0.03 µM, first compound 10 µM
[41] = second compound 0.0949 µM, first compound 0.316 µM
[42] = second compound 0.0949 µM, first compound 1 µM
[43] = second compound 0.0949 µM, first compound 3.16 µM
[44] = second compound 0.0949 µM, first compound 10 µM
[45] = second compound 0.3 µM, first compound 0.316 µM
[46] = second compound 0.3 µM, first compound 1 µM
[47] = second compound 0.3 µM, first compound 3.16 µM
[48] = second compound 0.3 µM, first compound 10 µM
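Further: spheroids exposed to agents for seven days before readout.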

CC(C)n1nc(-c2ccc3oc(N)nc3c2)c2c(N)ncnc21 + CCn1c(-c2cc(N3CCN(C)CC3)cnc2C(C)OC)c2c3cc(ccc31)-c1csc(n1)CC(NC(=O)C1CC1C)C(=O)N1CCCC(N1)C(=O)OCC(C)(C)C2
< 0.316 nM: IC50 (second compound 0.000949 µM) | IC50 (second compound 0.003 µM) | IC50 (second compound 0.00949 µM) | IC50 (second compound 0.03 µM) | IC50 (second compound 0.0949 µM) | IC50 (second compound 0.3 µM)
inactive: viability, T/C (second compound 0.000949 µM, first compound 0.000316 µM) 37.1% | viability, T/C (second compound 0.000949 µM, first compound 0.001 µM) 33.2% | viability, T/C [1] 25.4% | viability, T/C [2] 25.5% | viability, T/C [3] 16.9% | viability, T/C [4] 14.4% | viability, T/C (second compound 0.003 µM, first compound 0.000316 µM) 23.3% | viability, T/C (second compound 0.003 µM, first compound 0.001 µM) 20.4% | viability, T/C [5] 18.3% | viability, T/C [6] 15.1% | viability, T/C [7] 11.4% | viability, T/C (second compound 0.00949 µM, first compound 0.000316 µM) 19.9% | viability, T/C (second compound 0.00949 µM, first compound 0.001 µM) 17.6% | viability, T/C [9] 15.4% | viability, T/C [10] 11.2% | viability, T/C (second compound 0.03 µM, first compound 0.000316 µM) 13.6% | viability, T/C (second compound 0.03 µM, first compound 0.001 µM) 12.3% | viability, T/C [13] 11.5%
active: viability, T/C [8] 8.13% | viability, T/C [11] 7.74% | viability, T/C [12] 7.71% | viability, T/C [14] 10.1% | viability, T/C [15] 8.37% | viability, T/C [16] 6.86% | viability, T/C (second compound 0.0949 µM, first compound 0.000316 µM) 9.34% | viability, T/C (second compound 0.0949 µM, first compound 0.001 µM) 9.41% | viability, T/C [17] 9.4% | viability, T/C [18] 8.96% | viability, T/C [19] 8.01% | viability, T/C [20] 7.66% | viability, T/C (second compound 0.3 µM, first compound 0.000316 µM) 8.85% | viability, T/C (second compound 0.3 µM, first compound 0.001 µM) 9.23% | viability, T/C [21] 9.13% | viability, T/C [22] 7.72% | viability, T/C [23] 8.58% | viability, T/C [24] 6.19%

CC1(O)CCCC1n1c(=O)c(C(F)F)cc2cnc(NC3CCN(S(C)(=O)=O)CC3)nc21 (stereo not drawn) + CCn1c(-c2cc(N3CCN(C)CC3)cnc2C(C)OC)c2c3cc(ccc31)-c1csc(n1)CC(NC(=O)C1CC1C)C(=O)N1CCCC(N1)C(=O)OCC(C)(C)C2
< 31.6 nM: IC50 (second compound 0.000949 µM) | IC50 (second compound 0.003 µM) | IC50 (second compound 0.00949 µM) | IC50 (second compound 0.03 µM) | IC50 (second compound 0.0949 µM) | IC50 (second compound 0.3 µM)
inactive: viability, T/C [3] 32.3% | viability, T/C [4] 24.5% | viability, T/C [25] 18.9% | viability, T/C [26] 21.9% | viability, T/C [27] 27.9% | viability, T/C [28] 14% | viability, T/C [7] 18.5% | viability, T/C [8] 15.5% | viability, T/C [29] 13.4% | viability, T/C [30] 11.9% | viability, T/C [31] 14.7% | viability, T/C [32] 9.44% | viability, T/C [11] 14.6% | viability, T/C [12] 12.9% | viability, T/C [33] 11.6% | viability, T/C [34] 10.3% | viability, T/C [15] 11.8%
active: viability, T/C [35] 11% | viability, T/C [36] 8.01% | viability, T/C [16] 9.04% | viability, T/C [37] 9.94% | viability, T/C [38] 9.99% | viability, T/C [39] 9.98% | viability, T/C [40] 8.86% | viability, T/C [19] 7.96% | viability, T/C [20] 8.33% | viability, T/C [41] 7.56% | viability, T/C [42] 9.28% | viability, T/C [43] 11.6% | viability, T/C [44] 8.42% | viability, T/C [23] 7.72% | viability, T/C [24] 7.59% | viability, T/C [45] 7.36% | viability, T/C [46] 7.64% | viability, T/C [47] 9.08% | viability, T/C [48] 7.54%

CCN1CCN(Cc2ccc(Nc3ncc(F)c(-c4cc(F)c5nc(C)n(C(C)C)c5c4)n3)nc2)CC1 + CCn1c(-c2cc(N3CCN(C)CC3)cnc2C(C)OC)c2c3cc(ccc31)-c1csc(n1)CC(NC(=O)C1CC1C)C(=O)N1CCCC(N1)C(=O)OCC(C)(C)C2
< 3.16 nM: IC50 (second compound 0.000949 µM) | IC50 (second compound 0.003 µM) | IC50 (second compound 0.00949 µM) | IC50 (second compound 0.03 µM) | IC50 (second compound 0.0949 µM) | IC50 (second compound 0.3 µM)
inactive: viability, T/C [1] 31.4% | viability, T/C [2] 27.4% | viability, T/C [3] 31.6% | viability, T/C [4] 22.1% | viability, T/C [25] 28.7% | viability, T/C [26] 27.1% | viability, T/C [5] 22.1% | viability, T/C [6] 21.1% | viability, T/C [7] 16.8% | viability, T/C [8] 15.4% | viability, T/C [29] 18.4% | viability, T/C [30] 22.4% | viability, T/C [9] 16.1% | viability, T/C [10] 16.4% | viability, T/C [11] 11% | viability, T/C [12] 15.1% | viability, T/C [33] 14.2% | viability, T/C [34] 18.3% | viability, T/C [13] 11.1% | viability, T/C [14] 11.8% | viability, T/C [15] 9.68% | viability, T/C [16] 13.2% | viability, T/C [37] 13.1% | viability, T/C [38] 16.5% | viability, T/C [17] 8.73% | viability, T/C [18] 10.7% | viability, T/C [19] 9.07% | viability, T/C [20] 8.91% | viability, T/C [41] 12.2% | viability, T/C [42] 15.6% | viability, T/C [21] 8.74% | viability, T/C [22] 8.83% | viability, T/C [23] 7.48% | viability, T/C [24] 9.84% | viability, T/C [45] 10.8% | viability, T/C [46] 15.2%

C[C@@H](NC(=O)c1ncnc(N)c1Cl)c1ncc(C(=O)Nc2cc(C(F)(F)F)c(Cl)cn2)s1 + CCn1c(-c2cc(N3CCN(C)CC3)cnc2C(C)OC)c2c3cc(ccc31)-c1csc(n1)CC(NC(=O)C1CC1C)C(=O)N1CCCC(N1)C(=O)OCC(C)(C)C2
31.6 nM: IC50 (second compound 0.000949 µM)
inactive: viability, T/C [3] 41.3% | viability, T/C [4] 46.5% | viability, T/C [25] 55% | viability, T/C [26] 51.5% | viability, T/C [27] 45.7% | viability, T/C [28] 38% | viability, T/C [7] 22.9% | viability, T/C [8] 24.4% | viability, T/C [29] 26.9% | viability, T/C [30] 28.8% | viability, T/C [31] 24.8% | viability, T/C [32] 24.8% | viability, T/C [11] 15.6% | viability, T/C [12] 16.8% | viability, T/C [33] 17.4% | viability, T/C [34] 18.4% | viability, T/C [35] 18.9% | viability, T/C [36] 18.6% | viability, T/C [15] 14% | viability, T/C [16] 14.2% | viability, T/C [37] 16.5% | viability, T/C [38] 16.2% | viability, T/C [39] 15.4% | viability, T/C [40] 12.7% | viability, T/C [19] 10% | viability, T/C [20] 11% | viability, T/C [41] 10.4% | viability, T/C [42] 11.8% | viability, T/C [43] 16.1% | viability, T/C [44] 10.8% | viability, T/C [23] 9.44% | viability, T/C [24] 10.4% | viability, T/C [45] 11.2% | viability, T/C [46] 11% | viability, T/C [47] 13.1% | viability, T/C [48] 11.4%
< 31.6 nM: IC50 (second compound 0.003 µM) | IC50 (second compound 0.00949 µM) | IC50 (second compound 0.03 µM) | IC50 (second compound 0.0949 µM) | IC50 (second compound 0.3 µM)

Source: PubChem BioAssay AID2060902 (Molecular Pharmacology Branch, DTP, NCI, 2025)
